How the values were obtained:
AR / CBP ternary complex = AR / CBP ternary complex (Homo sapiens, UniProt P10275+Q92793); assay: Ternary complex formation assay (sandwich ELISA, AR capture, CBP antibody detection) in VCaP cell lysates; format: cell-based; conditions: treated 1.5 hours, rabbit CBP or p300 antibody detection, average, read-out: Average Ternary Complex
In short: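 Sandwich ELISA: plates were coated with anti-AR antibody (AR441) and given lysates of VCaP cells treated 1.5 h with bifunctional compound in charcoal-stripped serum. Co-captured CBP or p300 was probed with rabbit mAbs and HRP secondary. Chemifluorescent signal (ex 570/em 585) was read at 0, 5 and 15 min.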

VCaP cells = assay: VCaP growth inhibition assay (CTG); format: cell-based; conditions: Homo sapiens, 216 h, 30 pM R1881, 9 days
In short: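 Growth was measured by CTG luminescence after a 9-day exposure of VCaP cells to compound (final 10 fM–100 nM, fivefold steps) in the presence of 30 pM final R1881, in phenol red-free DMEM/5% CSS. IC50 values were derived by nonlinear 4-parameter regression of RLU against concentration.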

Chain of AR / CBP ternary complex (P10275 whole entry): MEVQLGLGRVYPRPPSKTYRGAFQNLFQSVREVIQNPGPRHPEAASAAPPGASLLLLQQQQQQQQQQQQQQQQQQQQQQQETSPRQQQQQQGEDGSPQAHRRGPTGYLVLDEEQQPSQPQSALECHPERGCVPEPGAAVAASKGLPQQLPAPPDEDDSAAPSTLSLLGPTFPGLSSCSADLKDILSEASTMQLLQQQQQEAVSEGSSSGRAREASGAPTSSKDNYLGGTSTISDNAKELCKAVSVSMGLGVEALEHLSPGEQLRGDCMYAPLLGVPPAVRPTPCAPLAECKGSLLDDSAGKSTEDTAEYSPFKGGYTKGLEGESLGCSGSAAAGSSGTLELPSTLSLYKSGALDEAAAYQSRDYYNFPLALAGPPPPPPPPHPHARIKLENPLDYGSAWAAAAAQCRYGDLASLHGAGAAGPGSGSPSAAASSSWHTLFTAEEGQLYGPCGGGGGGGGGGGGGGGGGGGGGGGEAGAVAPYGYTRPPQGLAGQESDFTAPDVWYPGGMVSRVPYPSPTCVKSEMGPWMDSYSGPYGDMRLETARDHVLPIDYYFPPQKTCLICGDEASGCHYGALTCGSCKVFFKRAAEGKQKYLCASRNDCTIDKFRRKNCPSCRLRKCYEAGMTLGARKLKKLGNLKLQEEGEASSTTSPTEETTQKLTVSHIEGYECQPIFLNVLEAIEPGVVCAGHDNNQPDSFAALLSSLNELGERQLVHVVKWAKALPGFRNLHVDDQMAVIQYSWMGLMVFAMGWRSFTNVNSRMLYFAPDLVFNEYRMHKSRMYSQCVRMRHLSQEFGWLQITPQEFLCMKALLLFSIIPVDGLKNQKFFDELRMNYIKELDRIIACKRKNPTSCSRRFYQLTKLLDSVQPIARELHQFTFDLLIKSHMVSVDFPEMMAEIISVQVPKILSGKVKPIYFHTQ
Chain of AR / CBP ternary complex (Q92793 2-2442): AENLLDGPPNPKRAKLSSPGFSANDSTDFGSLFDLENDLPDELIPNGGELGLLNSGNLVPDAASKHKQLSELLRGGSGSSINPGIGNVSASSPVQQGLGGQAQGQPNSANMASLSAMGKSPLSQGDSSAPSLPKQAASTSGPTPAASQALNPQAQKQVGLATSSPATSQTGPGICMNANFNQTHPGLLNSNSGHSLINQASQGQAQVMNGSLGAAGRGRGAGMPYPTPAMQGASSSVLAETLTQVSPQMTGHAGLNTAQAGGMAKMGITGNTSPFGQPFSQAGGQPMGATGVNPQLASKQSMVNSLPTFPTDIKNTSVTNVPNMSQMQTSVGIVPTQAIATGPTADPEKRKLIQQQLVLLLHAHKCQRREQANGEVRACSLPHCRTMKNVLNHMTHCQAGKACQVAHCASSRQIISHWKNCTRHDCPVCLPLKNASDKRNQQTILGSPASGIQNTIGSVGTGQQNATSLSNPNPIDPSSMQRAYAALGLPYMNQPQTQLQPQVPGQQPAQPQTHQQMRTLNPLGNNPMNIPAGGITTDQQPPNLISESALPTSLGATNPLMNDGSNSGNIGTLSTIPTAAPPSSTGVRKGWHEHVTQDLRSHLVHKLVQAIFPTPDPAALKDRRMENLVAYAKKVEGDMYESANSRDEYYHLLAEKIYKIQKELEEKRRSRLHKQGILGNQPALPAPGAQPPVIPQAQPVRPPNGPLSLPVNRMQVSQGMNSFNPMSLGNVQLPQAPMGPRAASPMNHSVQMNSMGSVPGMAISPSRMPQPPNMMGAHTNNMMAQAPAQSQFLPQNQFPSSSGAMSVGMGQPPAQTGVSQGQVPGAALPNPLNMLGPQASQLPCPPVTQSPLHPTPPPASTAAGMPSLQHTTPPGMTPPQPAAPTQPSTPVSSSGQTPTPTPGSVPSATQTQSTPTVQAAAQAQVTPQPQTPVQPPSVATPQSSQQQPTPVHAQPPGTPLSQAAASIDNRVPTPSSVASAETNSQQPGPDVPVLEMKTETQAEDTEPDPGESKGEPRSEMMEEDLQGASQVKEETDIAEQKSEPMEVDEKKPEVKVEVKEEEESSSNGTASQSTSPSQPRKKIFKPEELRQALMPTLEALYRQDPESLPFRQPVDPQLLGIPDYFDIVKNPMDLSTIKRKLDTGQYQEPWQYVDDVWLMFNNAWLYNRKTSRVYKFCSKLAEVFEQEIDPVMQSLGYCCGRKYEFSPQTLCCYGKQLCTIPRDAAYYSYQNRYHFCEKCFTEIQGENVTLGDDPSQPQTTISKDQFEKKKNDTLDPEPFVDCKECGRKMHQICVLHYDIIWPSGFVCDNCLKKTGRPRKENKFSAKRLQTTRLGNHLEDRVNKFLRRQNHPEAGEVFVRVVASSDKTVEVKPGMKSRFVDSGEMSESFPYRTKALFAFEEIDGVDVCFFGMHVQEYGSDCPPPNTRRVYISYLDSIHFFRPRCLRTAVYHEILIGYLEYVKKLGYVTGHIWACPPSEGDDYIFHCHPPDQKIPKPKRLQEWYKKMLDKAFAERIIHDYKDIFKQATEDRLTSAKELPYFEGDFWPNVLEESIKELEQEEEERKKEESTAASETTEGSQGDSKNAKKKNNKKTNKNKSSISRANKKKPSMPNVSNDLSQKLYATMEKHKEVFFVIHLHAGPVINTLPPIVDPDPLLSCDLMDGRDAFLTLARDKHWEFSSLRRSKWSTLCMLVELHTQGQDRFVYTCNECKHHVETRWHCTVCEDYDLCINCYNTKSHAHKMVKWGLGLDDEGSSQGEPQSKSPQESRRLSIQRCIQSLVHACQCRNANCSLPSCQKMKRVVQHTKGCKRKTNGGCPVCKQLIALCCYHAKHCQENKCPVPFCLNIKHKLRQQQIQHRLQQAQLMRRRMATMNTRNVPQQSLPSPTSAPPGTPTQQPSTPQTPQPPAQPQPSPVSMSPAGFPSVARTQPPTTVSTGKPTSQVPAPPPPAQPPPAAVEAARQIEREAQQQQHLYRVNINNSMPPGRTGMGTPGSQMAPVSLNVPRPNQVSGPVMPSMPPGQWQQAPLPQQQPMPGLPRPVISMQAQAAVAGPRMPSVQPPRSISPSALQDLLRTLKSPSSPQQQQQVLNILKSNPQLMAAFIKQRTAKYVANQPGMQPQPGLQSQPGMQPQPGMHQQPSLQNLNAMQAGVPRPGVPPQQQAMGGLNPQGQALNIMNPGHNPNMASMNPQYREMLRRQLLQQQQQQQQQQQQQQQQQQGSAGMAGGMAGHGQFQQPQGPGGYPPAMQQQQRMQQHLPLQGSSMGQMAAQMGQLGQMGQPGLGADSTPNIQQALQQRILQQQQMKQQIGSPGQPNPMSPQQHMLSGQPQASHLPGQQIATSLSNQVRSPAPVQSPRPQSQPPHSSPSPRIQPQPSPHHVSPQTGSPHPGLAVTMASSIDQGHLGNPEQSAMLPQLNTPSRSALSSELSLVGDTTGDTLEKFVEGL

## CC(=O)N1CCc2c(c(N3CCCc4cc(-c5cnn(C)c5)c(C(F)F)cc43)nn2C2CCC3(CC2)CCN(c2ccc(C(=O)N[C@H]4CC[C@H](Oc5ccc(C#N)c(Cl)c5)CC4)nn2)CC3)C1 [Compound 112, 6-[9-[5-acetyl-3-[7-(difluorodimethyl)-6-(1-methylpyrazol-4-yl)-3,4-dihydro-2H-quinolin-1-yl]-6,7-dihydro-4H-pyrazolo[4,3-c]pyridin-1-yl]-3-azaspiro[5.5]undecan-3-yl]-N-[4-(3-chloro-4-cyano-phenoxy)cyclohexyl]pyridazine-3-carboxamide]
AR / CBP ternary complex
  EC50: < 1 nM
VCaP cells
  IC50: 0.1 to 1 nM

## CC(=O)N1CCc2c(c(N3CCCc4cc(-c5cnn(C)c5)c(C(F)F)cc43)nn2[C@H]2CC[C@H](OC3CN(c4ccc(C(=O)N[C@H]5CC[C@H](Oc6ccc(C#N)c(Cl)c6)CC5)nn4)C3)CC2)C1 [Compound 224, 6-[3-[4-[5-acetyl-3-[7-(difluoromethyl)-6-(1-methylpyrazol-4-yl)-3,4-dihydro-2H-quinolin-1-yl]-6,7-dihydro-4H-pyrazolo[4,3-c]pyridin-1-yl]cyclohexoxy]azetidin-1-yl]-N-[4-(3-chloro-4-cyanophenoxy)cyclohexyl]pyridazine-3-carboxamide]
AR / CBP ternary complex
  EC50: < 1 nM
VCaP cells
  IC50: ≤ 0.1 nM

## CC(=O)N1CCc2c(c(-c3cccc4cc(-c5ccc(CCOC6CCN(c7ccc(C(=O)N[C@H]8CC[C@H](Oc9ccc(C#N)c(Cl)c9)CC8)nn7)CC6)nc5)ncc34)nn2C2CCOCC2)C1 [Compound 27, 6-[4-[2-[5-[8-(5-acetyl-1-tetrahydropyran-4-yl-6,7-dihydro-4H-pyrazolo[4,3-c]pyridin-3-yl)-3-isoquinolyl]-2-pyridyl]ethoxy]-1-piperidyl]-N-[4-(3-chloro-4-cyano-phenoxy)cyclohexyl]pyridazine-3-carboxamide]
AR / CBP ternary complex
  EC50: < 1 nM
VCaP cells
  IC50: 0.1 to 1 nM

## CC(=O)N1CCc2c(c(N3CCCc4cc(-c5cnn(C)c5)c(C(F)F)cc43)nn2C2CCN(C[C@H]3[C@H](C)CN(c4ccc(C(=O)N[C@H]5CC[C@H](Oc6ccc(C#N)c(C)c6C)CC5)nn4)C[C@@H]3C)CC2)C1 [Compound 288]
AR / CBP ternary complex
  EC50: < 1 nM
VCaP cells
  IC50: ≤ 0.1 nM

## CC(=O)N1CCc2c(c(N3CCCc4cc(-c5cnn(C)c5)c(C(F)F)cc43)nn2C2CCN(C3CCN(c4ccc(C(=O)N[C@H]5CC[C@H](Oc6ccc(C#N)c(Cl)c6)CC5)nn4)CC3(F)F)CC2)C1 (some centres unmarked) [Compound 198, 6-[4-[4-[5-acetyl-3-[7-(difluoromethyl)-6-(1-methylpyrazol-4-yl)-3,4-dihydro-2H-quinolin-1-yl]-6,7-dihydro-4H-pyrazolo[4,3-c]pyridin-1-yl]-1-piperidyl]-3,3-difluoro-1-piperidyl]-N-[4-(3-chloro-4-cyano-phenoxy)cyclohexyl]pyridazine-3-carboxamide]
AR / CBP ternary complex
  EC50: < 1 nM
VCaP cells
  IC50: ≤ 0.1 nM

## Cn1c(=O)sc2ccc(N3CCCc4cc(-c5ccc(CCC6CCN(c7ccc(C(=O)N[C@H]8CC[C@H](Oc9ccc(C#N)c(Cl)c9)CC8)nn7)CC6)nc5)ncc43)cc21 [Compound 57, N-[4-(3-chloro-4-cyano-phenoxy)cyclohexyl]-6-[4-[2-[5-[1-(3-methyl-2-oxo-1,3-benzothiazol-5-yl)-3,4-dihydro-2H-1,7-naphthyridin-6-yl]-2-pyridyl]ethyl]-1-piperidyl]pyridazine-3-carboxamide]
AR / CBP ternary complex
  EC50: < 1 nM
VCaP cells
  IC50: 1 to 100 nM

## CC(=O)N1CCc2c(c(N3CCCc4cc(-c5ccc(CCN6CCN(c7ccc(C(=O)N[C@H]8CC[C@H](Oc9ccc(C#N)c(Cl)c9)CC8)nn7)CC6)cc5)ncc43)nn2C2CCOCC2)C1 [Compound 157, 6-[4-[2-[4-[1-(5-acetyl-1-tetrahydropyran-4-yl-6,7-dihydro-4H-pyrazolo[4,3-c]pyridin-3-yl)-3,4-dihydro-2H-1,7-naphthyridin-6-yl]phenyl]ethyl]piperazin-1-yl]-N-[4-(3-chloro-4-cyano-phenoxy)cyclohexyl]pyridazine-3-carboxamide]
AR / CBP ternary complex
  EC50: < 1 nM
VCaP cells
  IC50: 0.1 to 1 nM

## COC(=O)N1c2ccc3c(nc(Cc4ccccc4)n3[C@@H]3CCC[C@H](OCC4CCN(c5ccc(C(=O)N[C@H]6CC[C@H](Oc7ccc(C#N)c(Cl)c7)CC6)nn5)CC4)C3)c2CC[C@@H]1C [Compound 257]
AR / CBP ternary complex
  EC50: 1 to 10 nM
VCaP cells
  IC50: 0.1 to 1 nM

## CC(=O)N1CCc2c(c(N3CCCc4cc(-c5ccc(N6CC(N7CCN(c8ccc(C(=O)N[C@H]9CC[C@H](Oc%10ccc(C#N)c(Cl)c%10)CC9)nn8)CC7)C6)nc5)c(C(F)F)cc43)nn2C2CCOCC2)C1 [Compound 216]
AR / CBP ternary complex
  EC50: < 1 nM
VCaP cells
  IC50: ≤ 0.1 nM

## C[C@@H]1CC(=O)Nc2cc(C3CCN(CC4CCN(c5ccc(C(=O)N[C@H]6CC[C@H](Oc7ccc(C#N)c(Cl)c7)CC6)nn5)CC4)CC3)cc(-c3ccc4c(cnn4C)c3)c2N1 [Compound 89]
AR / CBP ternary complex
  EC50: < 1 nM
VCaP cells
  IC50: ≤ 0.1 nM

## CC(=O)N1CCc2c(c(N3CCCc4cc(-c5cnn(C)c5)c(C)cc43)nn2C2CCN(C3CCC4(CC3)CN(c3ccc(C(=O)N[C@H]5CC[C@H](Oc6ccc(C#N)c(C)c6C)CC5)nn3)C4)CC2)C1 [Compound 299]
AR / CBP ternary complex
  EC50: < 1 nM
VCaP cells
  IC50: ≤ 0.1 nM

## CC(=O)N1CCc2c(c(N3CCCc4ccc(C(F)F)cc43)nn2C2CC3(C2)CN(CC2CC4(C2)CN(c2ccc(C(=O)N[C@H]5CC[C@H](Oc6ccc(C#N)c(Cl)c6)CC5)nn2)C4)C3)C1 (some centres unmarked) [Compound 43, -[6-[[6-[5-acetyl-3-[7-(difluoromethyl)-3,4-dihydro-2H-quinolin-1-yl]-6,7-dihydro-4H-pyrazolo[4,3-c]pyridin-1-yl]-2-azaspiro [3.3]heptan-2-yl]methyl]-2-azaspiro [3.3]heptan-2-yl]-N-[4-(3-chloro-4-cyano-phenoxy)cyclohexyl] pyridazine-3-carboxamide]
AR / CBP ternary complex
  EC50: 1 to 10 nM
VCaP cells
  IC50: 0.1 to 1 nM

## CC(=O)N1CCc2c(c(N3CCCc4cc(-c5cnn(C)c5)c(C(F)F)cc43)nn2C2CCN(CC3CC4CC3CN4c3ccc(C(=O)N[C@H]4CC[C@H](Oc5ccc(C#N)c(Cl)c5)CC4)nn3)CC2)C1 (some centres unmarked) [Compound 169, 6-[5-[[4-[5-acetyl-3-[7-(difluoromethyl)-6-(1-methylpyrazol-4-yl)-3,4-dihydro-2H-quinolin-1-yl]-6,7-dihydro-4H-pyrazolo[4,3-c]pyridin-1-yl]-1-piperidyl]methyl]-2-azabicyclo [2.2.1]heptan-2-yl]-N-[4-(3-chloro-4-cyano-phenoxy)cyclohexyl]pyridazine-3-carboxamide]
AR / CBP ternary complex
  EC50: < 1 nM
VCaP cells
  IC50: ≤ 0.1 nM

## CC(=O)N1CCc2c(c(N3CCCc4cc(-c5cnn(C)c5)c(C(F)F)cc43)nn2C2CCN(C[C@H]3CCN(c4ccc(C(=O)N[C@H]5CC[C@H](Oc6ccc(C#N)c(Cl)c6)CC5)nn4)C[C@@H]3C)CC2)C1 [Compound 104, 6-[4-[[4-[5-acetyl-3-[7-(difluoromethyl)-6-(1-methylpyrazol-4-yl)-3,4-dihydro-2H-quinolin-1-yl]-6,7-dihydro-4H-pyrazolo[4,3-c]pyridin-1-yl]-1-piperidyl]methyl]-3-methyl-1-piperidyl]-N-[4-(3-chloro-4-cyano-phenoxy)cyclohexyl]pyridazine-3-carboxamide]
AR / CBP ternary complex
  EC50: < 1 nM
VCaP cells
  IC50: ≤ 0.1 nM

## CC(=O)N1CCc2c(c(N3CCCc4cc(-c5cnn(C)c5)c(C(F)F)cc43)nn2[C@H]2CC[C@@]3(CCN(C4CN(c5ccc(C(=O)N[C@H]6CC[C@H](Oc7ccc(C#N)c(Cl)c7)CC6)nn5)C4)C3)CC2)C1 [Compound 263, 6-[3-[8-[5-acetyl-3-[7-(difluoromethyl)-6-(1-methylpyrazol-4-yl)-3,4-dihydro-2H-quinolin-1-yl]-6,7-dihydro-4H-pyrazolo[4,3-c]pyridin-1-yl]-2-azaspiro[4.5]decan-2-yl]azetidin-1-yl]-N-[4-(3-chloro-4-cyano-phenoxy)cyclohexyl]pyridazine-3-carboxamide]
AR / CBP ternary complex
  EC50: < 1 nM
VCaP cells
  IC50: ≤ 0.1 nM

## CC(=O)N1CCc2c(c(N3CCCc4cc(C#N)ccc43)nn2C2CC3(C2)CN(C(=O)C2CC4(C2)CN(c2ccc(C(=O)N[C@H]5CC[C@H](Oc6ccc(C#N)c(Cl)c6)CC5)nn2)C4)C3)C1 (some centres unmarked) [Compound 44, 6-[6-[6-[5-acetyl-3-(6-cyano-3,4-dihydro-2H-quinolin-1-yl)-6,7-dihydro-4H-pyrazolo[4,3-c]pyridin-1-yl]-2-azaspiro [3.3]heptane-2-carbonyl]-2-azaspiro[3.3]heptan-2-yl]-N-[4-(3-chloro-4-cyano-phenoxy)cyclohexyl] pyridazine-3-carboxamide]
AR / CBP ternary complex
  EC50: < 1 nM
VCaP cells
  IC50: 0.1 to 1 nM

## CC(=O)N1CCc2c(c(-c3cccc4cc(-c5cnn([C@H]6CC[C@H](C7CCN(c8ccc(C(=O)N[C@H]9CC[C@H](Oc%10ccc(C#N)c(Cl)c%10)CC9)nn8)CC7)CC6)c5)ncc34)nn2C2CCOCC2)C1 [Compound 184]
AR / CBP ternary complex
  EC50: 1 to 10 nM
VCaP cells
  IC50: 1 to 100 nM

## CC(=O)N1CCc2c(c(N3CCCc4cc(-c5cnn(C)c5)c(C(F)F)cc43)nn2C2CCN(C[C@H]3[C@H](C)CN(c4ccc(C(=O)N[C@H]5CC[C@H](Oc6ccc(C#N)c(C)c6)CC5)nn4)C[C@@H]3C)CC2)C1 [Compound 289, 6-[4-[[4-[5-acetyl-3-[7-(difluoromethyl)-6-(1-methylpyrazol-4-yl)-3,4-dihydro-2H-quinolin-1-yl]-6,7-dihydro-4H-pyrazolo[4,3-c]pyridin-1-yl]-1-piperidyl]methyl]-3,5-dimethyl-1-piperidyl]-N-[4-(4-cyano-3-methyl-phenoxy)cyclohexyl]pyridazine-3-carboxamide]
AR / CBP ternary complex
  EC50: < 1 nM
VCaP cells
  IC50: ≤ 0.1 nM

## CC(=O)N1CCc2c(c(-c3cccc4cc(-c5ccc(CCN6CCN(c7ccc(C(=O)N[C@H]8CC[C@H](Oc9ccc(C#N)c(Cl)c9)CC8)nn7)CC6)nc5)ncc34)nn2C2CCOCC2)C1 [Compound 28, 6-[4-[2-[5-[8-(5-acetyl-1-tetrahydropyran-4-yl-6,7-dihydro-4H-pyrazolo[4,3-c]pyridin-3-yl)-3-isoquinolyl]-2-pyridyl]ethyl]piperazin-1-yl]-N-[4-(3-chloro-4-cyano-phenoxy)cyclohexyl]pyridazine-3-carboxamide]
AR / CBP ternary complex
  EC50: < 1 nM
VCaP cells
  IC50: ≤ 0.1 nM
